Laboratory results taken from patent publication US7247441B2, “Nucleic acid sequence and protein in addition to polypeptides coding for mannitol dehydrogenases or parts thereof and the production and use thereof in diagnosis and therapy” (Biomay Produktions- Und Handels-Aktienge Sellschaft, priority 2002, dated 2007).

Target: T1, Cladosporium herbarum mannitol dehydrogenase (Cladosporium herbarum, UniProt P0C0Y5)
T1 construct: the enzyme activity was determined with the traditionally purified protein; from tissue; host or cells: Cladosporium herbarum extract (ammonium sulfate precipitation, HIC, anion exchange)
Test: Enzyme activity determination, absorption of NADPH at 340 nm
Assay type: biochemical
Experimental: The experiments reveal that the highly purified major allergen of Cladosporium herbarum is indeed a mannitol dehydrogenase which catalyzes the following metabolic reaction: Fructose+NADPH+H^+ ? mannitol+NADP^+. […] The method of the activity determination is described in example 3.
To confirm the results according to the invention, the enzyme activity was determined with the traditionally purified protein. The absorption of NADPH was measured in a photometer at 340 nm.
• 50 mM Tris-HCl, pH 7.5 • 0.25 mM NADPH or NADH • D-fructose or fructose-6-phosphate (0.1; 0.2; 0.4; 0.6; 0.8; 1.0; 1.2 M) • H2O to 1 ml • the reaction is started with 0.5 μl of MtDH Results: • Reaction with fructose and NADPH • No reaction with fructose-6-phosphate and NADH

T1 sequence (P0C0Y5 whole entry): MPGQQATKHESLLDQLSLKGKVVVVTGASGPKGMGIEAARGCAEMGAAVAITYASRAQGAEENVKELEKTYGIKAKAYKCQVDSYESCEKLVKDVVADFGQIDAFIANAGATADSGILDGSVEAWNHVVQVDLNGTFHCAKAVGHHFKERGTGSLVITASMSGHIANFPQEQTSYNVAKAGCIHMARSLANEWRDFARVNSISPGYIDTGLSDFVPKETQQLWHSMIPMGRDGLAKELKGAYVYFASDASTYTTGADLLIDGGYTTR

Structure (SMILES) | activity as cosubstrate or substrate of the mannitol dehydrogenase | effect on the reaction fructose + NADPH to mannitol + NADP+
NC(=O)C1=CN([C@@H]2O[C@H](COP(=O)(O)OP(=O)(O)OC[C@H]3O[C@@H](n4cnc5c(N)ncnc54)[C@H](O)[C@@H]3O)[C@@H](O)[C@H]2O)C=CC1 [NADH] | not active as cosubstrate | 
O=C(CO)[C@@H](O)[C@H](O)[C@H](O)COP(=O)(O)O [fructose-6-phosphate] | not active as substrate | inhibitory effect
